Data taken from patent US6861427B2, “Azabicyclylmethyl derivatives of 2,3-dihydro-1,4-dioxino[2,3-f]quinoline as 5-HT1A antagonists” (Wyeth, priority 2001, dated 2005).
Structures can show the parent of a compound that is named as a salt.

Tests used:
[1] = target: T1, human 5-HT1A receptors (Homo sapiens, UniProt P08908); assay: [3H] 8-OH-DPAT displacement from the 5-HT1A serotonin receptor (CHO cells); type: binding; conditions: displacement of [3H] 8-OH-DPAT, CHO cells stably transfected with human 5-HT1A receptors; read-out: 5-HT1A Receptor Affinity KI
T1 construct: expressed in transfected cells; host or cells: CHO cells
T1 sequence (P08908 1-422): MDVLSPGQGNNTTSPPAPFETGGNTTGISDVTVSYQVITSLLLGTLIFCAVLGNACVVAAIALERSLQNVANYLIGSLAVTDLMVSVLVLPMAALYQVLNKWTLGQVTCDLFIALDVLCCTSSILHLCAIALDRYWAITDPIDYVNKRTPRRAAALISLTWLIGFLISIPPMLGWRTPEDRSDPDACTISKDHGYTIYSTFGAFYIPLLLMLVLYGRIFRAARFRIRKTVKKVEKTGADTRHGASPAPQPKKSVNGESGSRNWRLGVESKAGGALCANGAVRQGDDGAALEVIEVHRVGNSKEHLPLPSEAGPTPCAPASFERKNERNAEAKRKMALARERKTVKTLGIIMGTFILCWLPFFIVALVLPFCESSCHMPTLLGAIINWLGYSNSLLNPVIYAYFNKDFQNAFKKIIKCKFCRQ
Description: High affinity for the serotonin 5-HT1A receptor was established by testing the claimed compound's ability to displace [^3H] 8-OH-DPAT (dipropylaminotetralin) from the 5-HT1A serotonin receptor following a modification of the procedure of Hall et al., J. Neurochem. 44, 1685 (1985) which utilizes CHO cells stably transfected with human 5-HT1A receptors.

[2] = target: T2, cloned human 5-HT1A receptors (Homo sapiens, UniProt P08908); assay: 35S-GTPγS binding assay, antagonist activity versus 8-OH-DPAT; type: biochemical; conditions: reversal of 8-OH-DPAT-stimulated 35S-GTPγS binding; for IC50: membranes with cloned human 5-HT1A receptors, read-out: 5-HT1A Function IC50
T2 construct: expressed in transfected cells
T2 sequence (P08908 1-422): T1 sequence (P08908 1-422)
Protocol: Antagonist activity at 5-HT1A receptors was established by using a ^35S-GTPγS binding assay similar to that used by Lazareno and Birdsall (Br. J. Pharmacol. 109: 1120, 1993), in which the test compound's ability to affect the binding of ^35S-GTPγS to membranes containing cloned human 5-HT1A receptors was determined. Agonists produce an increase in binding whereas antagonists produce no increase but rather reverse the effects of the standard agonist 8-OH-DPAT. The test compound's maximum inhibitory effect is represented as the Imax, while its potency is defined by the IC50.

Structure (SMILES) | Ki [1] [nM] | 5-HT1A Function Imax (maximum inhibitory effect) [2] | IC50 [2] [nM] | melting point [°C]
Cc1ccc2c3c(ccc2n1)OCC(CN1C2CCC1CC(O)(c1cccc(C(F)(F)F)c1)C2)O3 (stereo not shown) [Example 2, 8-{[8-Methyl-2,3-dihydro[1,4]dioxino[2,3-f]quinolin-2-yl]methyl}-3-[3-(trifluoromethyl)phenyl]-8-azabicyclo[3.2.1]octan-3-ol] | 6.81 |  |  | 
Cc1ccc2c3c(ccc2n1)OCC(CN1C2CCC1CC(O)(c1ccc4ccccc4c1)C2)O3 (stereo not shown) [Example 3, 8-{[8-Methyl-2,3-dihydro[1,4]dioxino[2,3-f]quinolin-2-yl}methyl]-3-(2-naphthyl)-8-azabicyclo[3.2.1]octan-3-ol] | 3.45 | (100) | 55.5 | 
Cc1ccc2c3c(ccc2n1)OCC(CN1C2CCC1CC(O)(c1cccc(C(F)(F)F)c1)C2)O3 (stereo not shown) (as salt: fumarate) (hydrate or solvate) [Example 2, 8-{[8-Methyl-2,3-dihydro[1,4]dioxino[2,3-f]quinolin-2-yl]methyl}-3-[3-(trifluoromethyl)phenyl]-8-azabicyclo[3.2.1]octan-3-ol] |  |  |  | 146 to 150
Cc1ccc2c3c(ccc2n1)OCC(CN1C2CCC1CC(O)(c1ccc4ccccc4c1)C2)O3 (stereo not shown) (as salt: fumarate) (hydrate or solvate) [Example 3, 8-{[8-Methyl-2,3-dihydro[1,4]dioxino[2,3-f]quinolin-2-yl}methyl]-3-(2-naphthyl)-8-azabicyclo[3.2.1]octan-3-ol] |  |  |  | 218 to 218.5
Cc1ccc2c3c(ccc2n1)OCC(CN1C2CCC1CC(O)(c1ccccc1)C2)O3 (stereo not shown) [Example 1, 8-{[8-Methyl-2,3-dihydro[1,4]dioxino[2,3-f]quinolin-2-yl]methyl}-3-phenyl-8-azabicyclo[3.2.1]octan-3-ol] | 2.59 | (98.0) | 6.85 | 162 to 165
